Data: US20150152441A1, “METHODS AND SYSTEMS FOR IMPROVING FERMENTATION EFFICIENCY” (LanzaTech New Zealand Limited, priority 2013, published 2015)

Key:
[1] = cited from earlier work
[2] = tested on: Clostridium autoethanogenum culture; test: Determination of effect of BTEX on fermentation (continuous CO gas fermentation; impact seen as rising pH and/or effect on CO and H2 uptake); type: cell-based; settings: for Liquid tolerance level / Liquid impact level (ppm): level in fermentation broth, compound added individually; for Liquid tolerance level: addition lowered until no effect was observed; for Liquid impact level (ppm): impact = rising pH and/or effect on CO and H2 uptake
Procedure: Media was prepared according to the composition described in Tables 1-3 to a volume of 1.5 L and 1.5 ml of resazurin added. The solution was heated and agitated whilst degassed with N2. A Na2S drip was started at a rate of 0.5 ml/hr and temperature of the bioreactor set to 37° C. The pH was adjusted to 5.0 with NH4OH and chromium was added to adjust the ORP to −200 mV. The bioreactor was then supplied with RMG (43% CO, 20% CO2, 2.5% H2 and 33% N2) at a flow rate of 50 ml/min. The solution was inoculated with 150 ml of an actively growing Clostridium autoethanogenum culture. The fermentation was operated continuously for a period of 41 days at dilution rate 1.5. At day 26.8, Toluene was added to the gas phase. To achieve this, the inflow gas was sparged through a toluene solution, which allowed toluene to accumulate in the reactor. Toluene was allowed to accumulate for 17 hours. The fermentation was allowed to recover and the experiment was repeated on day 27.8.
The reactor was allowed to recover. On day 35 Benzene was added to the gas phase. To achieve this, the inflow gas was sparged through a benzene solution, which allowed benzene to accumulate in the reactor. […] Benzene was allowed to accumulate to higher concentrations.
The effect of the addition of xylene and ethylbenzene were also performed using the same techniques. Based on vapour pressure the compounds would evaporate at a certain rate into gaseous phase.
The effect of the introduction of the various BTEX compounds on bacterial culture performance was determined by measurement of the following: culture density, metabolite concentration (ethanol, acetate, etc), oxidation-reduction potential, pH, carbon monoxide and hydrogen consumption. The compound accumulation in the gas and culture liquid phase was determined by GC-MS measurements.
Liquid tolerance levels were determined by lowering the addition until no effect was observed.

Row | Molecule | mm Hg vapor pressure (25° C.) [1] [mm Hg] | level in fermentation broth at which CO uptake decreased, with rising pH trend ([2]; after 3.5 hours exposure, FIG. 2-4) | level in broth below which CO uptake and pH returned to pre-addition levels (fermentation recovers) ([2]; after toluene addition was stopped) | effect on carbon monoxide utilisation of the microorganism ([2]; excess levels in fermentation solution) | Liquid tolerance level [2] [ppm] | Liquid impact level (ppm) [2] [ppm] | effect of addition to the reactor on the fermentation [2] | level in broth at which the compound began to effect the fermentation ([2]; FIG. 5-7) [ppm] | accumulation resulting in an increase in pH and decrease in CO uptake ([2]; FIG. 6, 7) | accumulation level with no observable effect on the fermentation ([2]; benzene added to gas phase on day 35) [ppm]
1 | Cc1ccccc1 [Toluene] | 22 | greater than 100 ppm | below 100 ppm | clear negative effect | <25 | >50 | – | – | – | –
2 | c1ccc2ccccc2c1 [naphthalene] | – | – | – | – | – | – | does not have a negative effect on the fermentation | – | – | –
3 | CCc1ccccc1 [Ethyl Benzene] | 7 | – | – | – | <10 | >20 | same effect was also seen | – | – | –
4 | c1ccccc1 [Benzene] | 76 | – | – | – | <40 | >40 | – | ≥ 50 | greater than 50 ppm | ≤ 40
5 | Xylenes | – | – | – | – | <10 | >100 | same effect was also seen | – | – | –
